# Laboratory results published in ChEMBL document CHEMBL1131481, “Novel 3-aralkyl-7-(amino-substituted)-1,2,3-triazolo[4,5-d]pyrimidines with high affinity toward A1 adenosine receptors” (J Med Chem, 1998).
# Biological target: T1, Adenosine receptor A1 (Bos taurus, UniProt P28190)
# T1 sequence (P28190 whole entry): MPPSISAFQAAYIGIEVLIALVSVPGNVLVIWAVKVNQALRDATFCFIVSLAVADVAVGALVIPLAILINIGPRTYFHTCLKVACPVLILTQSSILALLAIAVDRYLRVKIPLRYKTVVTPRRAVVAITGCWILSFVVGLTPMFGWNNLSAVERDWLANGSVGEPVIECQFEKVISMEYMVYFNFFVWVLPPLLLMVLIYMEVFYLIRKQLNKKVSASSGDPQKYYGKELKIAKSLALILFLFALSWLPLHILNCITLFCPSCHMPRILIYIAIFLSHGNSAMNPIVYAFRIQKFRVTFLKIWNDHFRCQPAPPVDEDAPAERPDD
# Experiment: Compound was tested for binding affinity at Adenosine A1 receptor in bovine brain cortical membranes using [3H](R)-(-)-N6-(2-phenylisopropyl)adenosine (R-PIA) as radioligand
# Type: cell membranes
row,Ki,SMILES
1,1670 nM,Cc1ccc(Nc2ncnc3c2nnn3CCc2ccccc2)cc1
2,1540 nM,Nc1ccc(CCNc2ncnc3c2nnn3Cc2ccccc2)cc1
3,3320 nM,Clc1cccc(Nc2ncnc3c2nnn3CCc2ccccc2)c1
4,575 nM,CC(Cc1ccccc1)Nc1ncnc2c1nnn2Cc1ccccc1 (centres undefined)
5,4380 nM,Cc1cccc(Nc2ncnc3c2nnn3CCc2ccccc2)c1
6,1100 nM,Cc1cccc(Nc2ncnc3c2nnn3Cc2ccccc2)c1
7,245 nM,O=[N+]([O-])c1ccc(CNc2ncnc3c2nnn3CCc2ccccc2)cc1
8,2200 nM,CC(Nc1ncnc2c1nnn2CCc1ccccc1)c1ccccc1 (centres undefined)
9,9500 nM,Nc1ccc(CNc2ncnc3c2nnn3Cc2ccccc2)cc1
10,443 nM,O=[N+]([O-])c1cccc(Nc2ncnc3c2nnn3Cc2ccccc2)c1
11,> 10000 nM,O=[N+]([O-])c1ccc(CNc2ncnc3c2nnn3Cc2ccccc2Cl)cc1
12,2250 nM,O=[N+]([O-])c1cccc(Nc2ncnc3c2nnn3CCc2ccccc2)c1
13,463 nM,Clc1cccc(Nc2ncnc3c2nnn3Cc2ccccc2)c1
14,> 10000 nM,Nc1ccc(CNc2ncnc3c2nnn3Cc2ccccc2Cl)cc1
15,274 nM,C[C@H](Cc1ccccc1)Nc1ncnc2c1nnn2Cc1ccccc1
16,502 nM,Cc1ccc(Nc2ncnc3c2nnn3Cc2ccccc2)cc1
17,> 10000 nM,O=[N+]([O-])c1ccc(CCNc2ncnc3c2nnn3Cc2ccccc2)cc1
18,> 10000 nM,O=[N+]([O-])c1ccc(CCNc2ncnc3c2nnn3Cc2ccccc2Cl)cc1
19,3300 nM,O=[N+]([O-])c1cccc(Nc2ncnc3c2nnn3Cc2ccccc2Cl)c1
20,> 10000 nM,O=[N+]([O-])c1ccc(CNc2ncnc3c2nnn3Cc2ccccc2)cc1

# More lines, now with the values behind:
row,SMILES,Ki
1,Cc1cccc(Nc2ncnc3c2nnn3Cc2ccccc2Cl)c1,5880 nM
2,c1ccc(Cn2nnc3c(NC4CCCCC4)ncnc32)cc1,121 nM
3,Cc1ccc(Nc2ncnc3c2nnn3Cc2ccccc2Cl)cc1,119 nM
4,Clc1ccccc1Cn1nnc2c(NC3CCCC3)ncnc21,21 nM
5,CC(Cc1ccccc1)Nc1ncnc2c1nnn2Cc1ccccc1Cl (centres undefined),73 nM
6,CC1CCCC(Nc2ncnc3c2nnn3Cc2ccccc2Cl)C1 (centres undefined),102 nM
7,c1ccc(Cn2nnc3c(NCC4CCCCC4)ncnc32)cc1,2790 nM
8,c1ccc(CCn2nnc3c(NC4CCCCC4)ncnc32)cc1,216 nM
9,CC(Nc1ncnc2c1nnn2Cc1ccccc1Cl)c1ccccc1 (centres undefined),468 nM
10,CC(Nc1ncnc2c1nnn2Cc1ccccc1)c1ccccc1 (centres undefined),438 nM
11,c1ccc(Cn2nnc3c(NC4CCCC4)ncnc32)cc1,127 nM
12,Clc1ccccc1Cn1nnc2c(NC3CCCCC3)ncnc21,43 nM
13,Clc1ccccc1Cn1nnc2c(NCC3CCCCC3)ncnc21,4260 nM
14,CC1CCCC(Nc2ncnc3c2nnn3Cc2ccccc2)C1 (centres undefined),770 nM
15,Clc1cccc(Nc2ncnc3c2nnn3Cc2ccccc2Cl)c1,1830 nM
16,C[C@H](Cc1ccccc1)Nc1ncnc2c1nnn2Cc1ccccc1Cl,39 nM
17,c1ccc(CCn2nnc3c(NC4CCCC4)ncnc32)cc1,176 nM
18,CC(Cc1ccccc1)Nc1ncnc2c1nnn2CCc1ccccc1 (centres undefined),2490 nM
19,Clc1ccccc1Cn1nnc2c(NNc3ccccc3)ncnc21,> 10000 nM
